The text below walks through data of ChEMBL document CHEMBL4699562, “Design, syntheses and evaluations of novel indole derivatives as orally selective estrogen receptor degraders (SERD)” (Bioorg Med Chem Lett, 2020).

The target in data set [1] is T1, Estrogen receptor (Homo sapiens, UniProt P03372).
T1 sequence (P03372 whole entry): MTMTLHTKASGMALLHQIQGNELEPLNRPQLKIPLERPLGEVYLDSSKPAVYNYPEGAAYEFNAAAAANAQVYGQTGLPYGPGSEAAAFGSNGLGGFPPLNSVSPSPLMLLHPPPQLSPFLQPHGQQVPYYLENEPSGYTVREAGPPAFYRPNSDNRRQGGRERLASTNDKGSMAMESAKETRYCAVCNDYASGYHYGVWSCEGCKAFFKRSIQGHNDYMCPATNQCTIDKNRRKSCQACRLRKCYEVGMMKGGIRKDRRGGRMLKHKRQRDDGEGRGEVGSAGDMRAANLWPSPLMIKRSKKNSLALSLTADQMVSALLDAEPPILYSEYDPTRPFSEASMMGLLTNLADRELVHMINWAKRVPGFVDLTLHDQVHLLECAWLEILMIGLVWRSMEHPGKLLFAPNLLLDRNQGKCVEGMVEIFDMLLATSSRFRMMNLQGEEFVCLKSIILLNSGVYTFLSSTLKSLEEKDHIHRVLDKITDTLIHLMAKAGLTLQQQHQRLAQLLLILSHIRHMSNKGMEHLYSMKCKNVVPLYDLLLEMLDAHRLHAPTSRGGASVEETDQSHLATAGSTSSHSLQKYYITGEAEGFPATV
The data set is described as follows: Binding affinity to estrogen receptor (unknown origin).

Data set [2] addresses T1, Estrogen receptor. As to the kind of experiment: Induction of estrogen receptor degradation in human MCF7 cells. The format is cell-based.
In data set [3] the test system is MCF7. As to the kind of experiment: Antiproliferative activity against human MCF7 cells assessed as cell growth inhibition. It counts as functional, cell-based.
Data set [4] concerns the target Voltage-gated inwardly rectifying potassium channel KCNH2 (Homo sapiens, UniProt Q12809). The data set is described as follows: Inhibition of human ERG by automatic Q-patch assay.
Data set [5] is described as follows: Clearance in CD-1 mouse. It counts as ADME. The following applies: in vivo.
Data set [6] in a line: Volume of distribution in CD-1 mouse. The format is ADME. Particulars: in vivo.
Data set [7] has as its system MCF7. As to the kind of experiment: Antitumor activity against human MCF7 cells expressing ER xenografted in BALB/c mouse assessed as tumor growth inhibition at 20 mg/kg, po qd administered for 21 days and measured on day 19 relative to control. Particulars: 456 h, time 19 day, read-out: TGI. The format is functional. On the technique in general: Xenograft models place foreign cells or tissue in a host animal.

Data set [8] can be described thus: Oral bioavailability in CD-1 mouse. The format is ADME, organism-based. The following applies: in vivo.
Data set [9] deals with MCF7. As to the kind of experiment: Antitumor activity against human MCF7 cells expressing ER xenografted in BALB/c mouse assessed as tumor growth suppression at 20 mg/kg, po qd administered for 21 days. The format is functional, organism-based. Particulars: time 21.0 day.
The nature of data set [10]: AUC (0 to last) in CD-1 mouse at 2.5 mg/kg, po. It counts as ADME, organism-based. The arrangement: time 0 - last, route oral, dose 2.5 mg/kg. Particulars: in vivo.

Activity calls are given as the source filed them. The calls are words filed in the database; no cut-off is given here. Bounds are passed on as bounds.

Voltage-gated inwardly rectifying potassium channel KCNH2, sequence (Q12809 whole entry): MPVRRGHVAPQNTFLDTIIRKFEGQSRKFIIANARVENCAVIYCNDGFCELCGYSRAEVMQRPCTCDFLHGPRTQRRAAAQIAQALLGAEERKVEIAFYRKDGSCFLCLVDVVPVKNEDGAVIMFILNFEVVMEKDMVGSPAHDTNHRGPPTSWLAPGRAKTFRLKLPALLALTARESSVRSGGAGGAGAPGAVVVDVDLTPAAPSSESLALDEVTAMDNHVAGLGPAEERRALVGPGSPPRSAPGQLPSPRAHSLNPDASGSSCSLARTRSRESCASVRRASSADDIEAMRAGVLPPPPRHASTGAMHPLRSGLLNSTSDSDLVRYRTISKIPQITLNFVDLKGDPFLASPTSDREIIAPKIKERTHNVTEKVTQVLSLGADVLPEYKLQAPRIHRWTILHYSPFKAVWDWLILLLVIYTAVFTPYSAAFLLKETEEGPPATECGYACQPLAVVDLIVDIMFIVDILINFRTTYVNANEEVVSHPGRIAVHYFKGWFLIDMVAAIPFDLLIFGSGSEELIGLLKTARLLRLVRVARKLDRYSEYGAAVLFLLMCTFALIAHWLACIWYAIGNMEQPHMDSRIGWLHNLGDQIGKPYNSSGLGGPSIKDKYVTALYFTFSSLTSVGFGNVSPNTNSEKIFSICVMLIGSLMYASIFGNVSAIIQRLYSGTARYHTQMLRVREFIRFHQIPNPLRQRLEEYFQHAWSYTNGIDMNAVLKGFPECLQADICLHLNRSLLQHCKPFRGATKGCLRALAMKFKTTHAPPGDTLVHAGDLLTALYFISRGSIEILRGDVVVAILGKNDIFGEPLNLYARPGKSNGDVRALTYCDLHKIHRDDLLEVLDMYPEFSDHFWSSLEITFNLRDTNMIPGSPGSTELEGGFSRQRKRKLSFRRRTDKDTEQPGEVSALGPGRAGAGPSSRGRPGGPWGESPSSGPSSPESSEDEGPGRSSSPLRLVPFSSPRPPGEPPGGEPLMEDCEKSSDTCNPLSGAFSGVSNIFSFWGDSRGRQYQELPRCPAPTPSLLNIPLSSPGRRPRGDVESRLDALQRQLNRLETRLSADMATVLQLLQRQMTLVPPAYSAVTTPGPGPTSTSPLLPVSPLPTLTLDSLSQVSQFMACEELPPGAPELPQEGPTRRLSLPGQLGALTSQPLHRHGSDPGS

As usually defined, the IC50 is the point on the concentration scale where inhibition reaches its midpoint. Take `CC/C(=C(/c1ccc(/C=C/C(=O)O)cc1)c1cc2ccccc2[nH]1)c1cccc(C)c1`: the results for the IC50 on Estrogen receptor [1], at Estrogen receptor [2] and with MCF7 [3] were 1.46 nM, 69 nM and 140 nM, respectively.

In the case of `CC/C(=C(/c1ccc(/C=C/C(=O)O)cc1)c1cc2ccccc2[nH]1)c1ccc(OC)cc1`, the figures for the IC50 at Estrogen receptor [1], on Estrogen receptor [2] and in the data set with MCF7 [3] were 0.22 nM, 30 nM and 61 nM, respectively.

Turning to `CC/C(=C(/c1ccc(/C=C/C(=O)O)cc1)c1cc2ccccc2[nH]1)c1ccc(Cl)c(C)c1`, the IC50 against Estrogen receptor [2] was 1390 nM; with MCF7 [3] it was 840 nM.

For `CC/C(=C(/c1ccc(/C=C/C(=O)O)cc1)c1cc2ccccc2[nH]1)c1cccc(OC(F)(F)F)c1`, the IC50 came to 4.71 nM at Estrogen receptor [1], 68 nM against Estrogen receptor [2] and 282 nM in the data set with MCF7 [3].

As to `CC/C(=C(/c1ccc(/C=C/C(=O)O)cc1)c1cc2ccccc2[nH]1)c1ccccc1C#N`, the values for the IC50 at Estrogen receptor [1], on Estrogen receptor [2] and in the data set on MCF7 [3] were 0.24 nM, 9 nM and 9 nM, respectively.

Regarding `CC/C(=C(/c1ccc(/C=C/C(=O)O)cc1)c1cc2ccccc2[nH]1)c1c(C)cccc1Cl`, the IC50 against Estrogen receptor [2] was found to be 42 nM; in the data set on MCF7 [3] it was 30 nM.

As to `CC/C(=C(/c1ccc(/C=C/C(=O)O)cc1)c1cc2ccccc2[nH]1)c1ccc(C(F)(F)F)cc1`, the IC50 on Estrogen receptor [2] was 163 nM; in the data set on MCF7 [3] it was 139 nM.

Take `CC/C(=C(/c1ccc(/C=C/C(=O)O)cc1)c1cc2ccccc2[nH]1)c1ccccc1`: the IC50 at Estrogen receptor [1] is 0.28 nM; at Estrogen receptor [2], 66.6 nM; in the data set on MCF7 [3], 108 nM.

Regarding `CC/C(=C(/c1ccc(/C=C/C(=O)O)cc1)c1cc2ccccc2[nH]1)c1ccc(Cl)c(C(F)(F)F)c1`, the results for the IC50 on Estrogen receptor [2] and with MCF7 [3] were 2450 nM and 2200 nM, respectively.

In the case of `CC/C(=C(/c1ccc(/C=C/C(=O)O)cc1)c1cc2ccccc2[nH]1)c1ccc(F)cc1Cl`, the figures for the IC50 on Estrogen receptor [1], at Estrogen receptor [2] and in the data set on MCF7 [3] were 1.6 nM, 21 nM and 39 nM, respectively.

As for `CC/C(=C(/c1ccc(/C=C/C(=O)O)cc1)c1cc2ccccc2[nH]1)c1ccccc1Cl`, the IC50 on Estrogen receptor [1] was found to be 0.44 nM; against Estrogen receptor [2] it was 29 nM; in the data set on MCF7 [3], 42 nM.

For the molecule `C[C@@H]1Cc2c([nH]c3ccccc23)[C@@H](c2c(F)cc(/C=C/C(=O)O)cc2F)N1CC(C)(C)F` [AZD-9496], the IC50 with MCF7 [3] turned out to be 0.49 nM.

The clearance is the volume of plasma or blood freed of the substance per unit of time. Lower therefore signals a low capacity for elimination. For orientation: Vd means the apparent volume that relates the amount in the body to the concentration in plasma or blood. The low end stands for confinement near the circulation, the high end for extensive tissue distribution. The bioavailability is dose-corrected exposure relative to a reference, in per cent. Low readings indicate little systemic uptake, high ones much systemic uptake. The term AUC(0-t) denotes the area under the concentration-time curve up to a stated or last time point. Lower therefore signals low exposure. Take `CC/C(=C(/c1ccc(/C=C/C(=O)O)cc1)c1cc2ccccc2[nH]1)c1ccc(Cl)cc1C(F)(F)F`: the IC50 at Estrogen receptor [1] is 0.76 nM; in data set [4], greater than 30000 nM; against Estrogen receptor [2], 2 nM; in the data set with MCF7 [3] it was 4 nM. For the same molecule, the clearance in data set [5] turned out to be 6.86 mL/min/kg. Further, the Vd in data set [6] turned out to be 1.6 L/kg. Also, the inhibition in vivo at 20 mg/kg in the data set on MCF7 [7] was determined as 117%. In data set [8], this molecule registered a bioavailability of 52.4%. Also, the inhibition entry with MCF7 [9] was “Active”. The molecule also returned an AUC(0-t) in data set [10] of 6.36 µM·h.

As to `CC/C(=C(/c1ccc(/C=C/C(=O)O)cc1)c1cc2ccccc2[nH]1)c1cccc(C(F)(F)F)c1`, the IC50 was 1.75 nM at Estrogen receptor [1], 131 nM against Estrogen receptor [2] and 325 nM in the data set on MCF7 [3].

Take `CC/C(=C(/c1ccc(/C=C/C(=O)O)cc1)c1cc2ccccc2[nH]1)c1cc(Cl)ccc1Cl`: the IC50 is 1.4 nM at Estrogen receptor [1], 25 nM at Estrogen receptor [2] and 71 nM in the data set on MCF7 [3].

Take `CC/C(=C(/c1ccc(/C=C/C(=O)O)cc1)c1cc2ccccc2[nH]1)c1ccc(C#N)cc1Cl`: the IC50 on Estrogen receptor [1] amounted to 0.17 nM; on Estrogen receptor [2] it was 31 nM; in the data set with MCF7 [3] it was 49 nM.

On to `CC/C(=C(/c1ccc(/C=C/C(=O)O)cc1)c1cc2ccccc2[nH]1)c1ccc(Cl)cc1C#N`, for which the IC50 at Estrogen receptor [1] was determined as 0.16 nM; on Estrogen receptor [2], 18 nM; in the data set on MCF7 [3] it was 14 nM.

Regarding `CC/C(=C(/c1ccc(/C=C/C(=O)O)cc1)c1cc2ccccc2[nH]1)c1ccc(Cl)cc1Cl`, the IC50 at Estrogen receptor [1] came to 1.52 nM; at Estrogen receptor [2] it was 9 nM; in the data set with MCF7 [3], 11 nM.

With `CC/C(=C(/c1ccc(/C=C/C(=O)O)cc1)c1cc2ccccc2[nH]1)c1ccccc1C(F)(F)F`, the IC50 came out at 0.87 nM on Estrogen receptor [1], 4 nM against Estrogen receptor [2] and 8 nM in the data set with MCF7 [3]. In [4] (human), the “inhibition (INH)” value is on record as “Active”. In addition, in data set [5], the clearance was found to be 5.54 mL/min/kg. Moreover, the Vd in data set [6] was found to be 1.12 L/kg. For the same molecule, in the data set on MCF7 [7], the inhibition in vivo at 20 mg/kg was found to be 112%. Moreover, the bioavailability in data set [8] worked out at 25.7%. In addition, the inhibition result in the data set with MCF7 [9] is “Active”. In data set [10], this molecule registered an AUC(0-t) of 4.21 µM·h.

Consider `CC/C(=C(/c1ccc(/C=C/C(=O)O)cc1)c1cc2ccccc2[nH]1)c1ccccc1OC(F)(F)F`, for which the IC50 was determined as 2.41 nM at Estrogen receptor [1], 93 nM against Estrogen receptor [2] and 206 nM in the data set with MCF7 [3].

On to `CC/C(=C(/c1ccc(/C=C/C(=O)O)cc1)c1cc2ccccc2[nH]1)c1ccc(Cl)cc1`, for which the IC50 on Estrogen receptor [1] was determined as 1.74 nM; on Estrogen receptor [2], 271 nM; in the data set on MCF7 [3], 343 nM.

`CC/C(=C(/c1ccc(/C=C/C(=O)O)cc1)c1cc2ccccc2[nH]1)c1ccccc1C`: the IC50 was 0.17 nM on Estrogen receptor [1], 9 nM against Estrogen receptor [2] and 33 nM in the data set with MCF7 [3].

Consider `CC/C(=C(/c1ccc(/C=C/C(=O)O)cc1)c1cc2ccccc2[nH]1)c1ccc(C#N)cc1`, for which the IC50 against Estrogen receptor [2] was 723 nM; in the data set on MCF7 [3], 278 nM.

For the molecule `CC/C(=C(/c1ccc(/C=C/C(=O)O)cc1)c1cc2ccccc2[nH]1)c1cccc(Cl)c1Cl`, the IC50 at Estrogen receptor [1] was found to be 3.18 nM; against Estrogen receptor [2], 495 nM; in the data set on MCF7 [3], 898 nM.

For `CC/C(=C(/c1ccc(/C=C/C(=O)O)cc1)c1cc2ccccc2[nH]1)c1cccc(F)c1C#N`, the IC50 on Estrogen receptor [1] worked out at 0.17 nM; on Estrogen receptor [2], 49 nM; in the data set on MCF7 [3], 40 nM.

Consider `CC/C(=C(/c1ccc(/C=C/C(=O)O)cc1)c1cc2ccccc2[nH]1)c1ccc(C(F)(F)F)cc1Cl`, for which the IC50 is 0.98 nM at Estrogen receptor [1], 6 nM on Estrogen receptor [2] and 27 nM in the data set with MCF7 [3].
